# Measurements reported in patent EP4810500A1, “IMIDAZOL-2-ONE DERIVATIVE AND USE THEREOF IN MEDICINE” (Haisco Pharmaceutical Group Co., Ltd., priority 2023, dated 2025).
# Read-outs that look alike come from different tables or passages of the source.
# Experiments:
# GLP-1R [1] = target: T1, GLP-1R (Homo sapiens, UniProt P43220); test: In vitro activity assay (cAMP HTRF, HEK293-CRE-luc-GLP-1R cells); assay type: cell-based; parameters: expressed in transfected cells; host or cells: HEK293 (HEK293-CRE-luc-GLP-1R); conditions: cAMP HTRF 665 nm/620 nm, 1 h incubation
# Description: HEK293-CRE-luc-GLP-1R cells were seeded into a 384-well cell culture plate (Greiner #781946) at a certain cell density (5 µL/well). 5 µl/well of 2× working solution was added to the 384-well microplate. The microplate was sealed with parafilm and incubated in a 37°C 5% CO2 incubator (Thermo) for 1 h. Subsequently, the detection was performed using the cAMP-GS HIRANGE KIT (PerkinElmer, 62AM6PEB), and detection reagents were prepared according to the kit instruction manual. After the incubation, the detection reagents were added to the 384-well microplate, and the microplate was incubated for 1 h at room temperature in the dark. HTRF signals at 665 nm and 620 nm were then measured using a multimode microplate reader. Data were exported from the microplate reader in Excel format. GraphPad Prism was opened. The logarithm of the sample concentration was calculated. Using the logarithm of concentration as the x-axis and the 665 nm/620 nm ratio as the y-axis, four-parameter logistic fitting was performed to obtain the EC50 value of the curve. Table 1: EC50 of compounds against GLP-1
# CYP2D6 = target: T2, CYP2D6 (Homo sapiens, UniProt P10635); test: CYP450 enzyme activity inhibition assay (human liver microsomes); assay type: in vitro ADME
# T2 construct: from tissue; host or cells: human liver microsomes
# Description: (§1) The purpose of this study was to evaluate the effects of the test compounds on the activities of five isoenzymes (CYP1A2, CYP2C9, CYP2C19, CYP2D6, and CYP3A4) of human liver microsomal cytochrome P450 (CYP) using an in vitro testing system. The specific probe substrates of CYP450 isoenzymes were incubated with human liver microsomes and test compounds of different concentrations, and reduced nicotinamide adenine dinucleotide phosphate (NADPH) was added to initiate the reaction. After the completion of the reaction, the sample was treated and liquid chromatography-tandem mass spectrometry (LC-MS/MS) was used to quantitatively detect metabolites produced by specific substrates. Changes in CYP enzyme activity were determined, and IC50 value was calculated to evaluate the inhibitory potential of the test compound on each CYP enzyme subtype.
# CYP2C19 = target: T3, CYP2C19 (Homo sapiens, UniProt P33261); test: as above; assay type: in vitro ADME
# T3 construct: from tissue; host or cells: human liver microsomes
# Description: as §1
# CYP3A4 = target: T4, CYP3A4 (Homo sapiens, UniProt P08684); test: as above; assay type: in vitro ADME
# T4 construct: from tissue; host or cells: human liver microsomes
# Description: as §1
# CYP1A2 = target: T5, CYP1A2 (Homo sapiens, UniProt P05177); test: as above; assay type: in vitro ADME
# T5 construct: from tissue; host or cells: human liver microsomes
# T5 sequence (P05177 1-516): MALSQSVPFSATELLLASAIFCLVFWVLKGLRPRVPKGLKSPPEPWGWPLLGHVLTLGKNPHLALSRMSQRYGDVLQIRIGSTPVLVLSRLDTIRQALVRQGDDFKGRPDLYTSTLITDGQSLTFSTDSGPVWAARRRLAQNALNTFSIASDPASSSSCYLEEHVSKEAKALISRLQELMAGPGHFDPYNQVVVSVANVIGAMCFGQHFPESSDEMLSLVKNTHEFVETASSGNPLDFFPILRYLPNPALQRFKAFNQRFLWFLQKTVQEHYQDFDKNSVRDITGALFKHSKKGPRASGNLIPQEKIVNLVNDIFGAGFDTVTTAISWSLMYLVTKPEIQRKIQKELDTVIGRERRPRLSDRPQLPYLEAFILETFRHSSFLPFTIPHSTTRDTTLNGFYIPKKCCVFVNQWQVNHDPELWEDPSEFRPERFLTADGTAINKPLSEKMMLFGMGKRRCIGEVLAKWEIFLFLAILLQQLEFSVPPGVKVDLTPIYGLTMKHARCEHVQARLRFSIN
# Description: as §1
# CYP2C9 = target: T6, CYP2C9 (Homo sapiens, UniProt P11712); test: as above; assay type: in vitro ADME
# T6 construct: from tissue; host or cells: human liver microsomes
# Description: as §1
# GLP-1R [2] = target: T1, GLP-1R; test: Oral glucose tolerance test (OGTT); assay type: in vivo, male C57BL/6-G1p1rem2 (hGLP1R) Smoc mice; parameters: from tissue; host or cells: whole animal: male C57BL/6-Glp1r em2(hGLP1R) Smoc knock-in mice; conditions: 3 mg/kg, orally administered; from blood glucose AUC0-2 h after glucose load
# Description: OGTT experiment was performed in male C57BL/6-G1p1rem2 (hGLP1R) Smoc mice to evaluate the hypoglycaemic effect of GLP-1 receptor agonists. The animals were fasted for more than 16 hours and randomly grouped. Tail tip blood was collected and basal fasting blood glucose (FBG) was measured using a blood glucose meter. Mice with FBG in the range of 3.5-6.5 mmol/L were selected and orally administered, and the control group was administered the vehicle. 15 min after administration, each group of animals was intragastrically administered with 25% glucose solution. Blood glucose levels were measured in tail tip blood collected 15 min, 30 min, 45 min, 1 h, and 2 h after glucose administration. 0-2 h blood glucose AUC0-2 h was calculated using the Graphpad Prism software, and the inhibition rate was further calculated. [formula]
# [3] = Monkey pharmacokinetic assay; assay type: in vivo, male cynomolgus monkeys; conditions: cynomolgus monkey, monkeys; for bioavailability: intragastric administration 5 mg/kg (intravenous 1 mg/kg); for AUC(0-t): intragastric administration 5 mg/kg
# Description: Experimental animals: male cynomolgus monkeys, 3-5 kg, 3-6 years old, 5 monkeys/compound, purchased from Hainan New Source Biotechnology Co., Ltd.
# Experimental method: On the day of the experiment, five monkeys were randomly grouped according to body weight, with two in the intravenous administration group and three in the intragastric administration group. The animals were fasted with water available for 14 h to 18 h one day before the administration, and were fed 4 h after the administration. Table 3. Administration information
# [4] = Mouse pharmacokinetic assay; assay type: in vivo, male C57 mice; conditions: plasma, mice; for bioavailability: intragastric administration 10 mg/kg (intravenous 2.5 mg/kg); for AUC(0-t): intragastric administration 10 mg/kg
# Description: Experimental animals: male C57 mice, 22-25 g, 6 mice/compound.
# Experimental design: on the day of the experiment, C57 mice were randomly grouped according to body weight. The animals were fasted with water available for 12 h to 14 h one day before the administration, and were fed 4 h after the administration. Table 2. Administration information
# Before and after the administration, 0.06 mL of blood was taken from the orbits under isoflurane anaesthesia and placed in an EDTAK2 centrifuge tube. The blood was centrifuged at 5000 rpm at 4°C for 10 min, and the plasma was collected. The blood collection time points for the intravenous administration group and intragastric administration group were 0, 5 min, 15 min, 30 min, 1 h, 2 h, 4 h, 7 h and 24 h. Before analysis and detection, all samples were stored at -80°C, and the samples were quantitatively analysed by LC-MS/MS. Table 2-1 Pharmacokinetic results of test compounds in mice
# OATP1B3 = OATP1B3 (Homo sapiens, UniProt Q9NPD5); test: in vitro; conditions: oatp1b3 cells
# Description: (§2) The objective of this study was to evaluate the inhibitory effects of the test substance on the activities of the transporters OATP1B1 and OATP1B3.
# (§3) HEK293-OATP1B1 and OATP1B3 cells were incubated with and without the test substance (0-30 µM) for the corresponding time. Samples were then collected, and the substrate content in the samples was detected by liquid chromatography-tandem mass spectrometry (LC-MS/MS). By calculating the transport activity of the transporter with and without the test substance, the percentage of transporter activity of the transporter-expressing cells at different administration concentrations of the test substance (%VC (Vehicle Control, solvent control), the percentage of transport activity of the transporter with and without the test substance) was obtained, and the half-maximal inhibitory concentration (IC50) was calculated from this.
# OATP1B1 = target: T7, OATP1B1 (Homo sapiens, UniProt Q9Y6L6); test: SLC transporter inhibition assay (HEK293-OATP1B1 cells); assay type: in vitro ADME; conditions: test substance 0-30 µM, read-out: IC50 against OATP1B1
# T7 construct: expressed in transfected cells; host or cells: HEK293
# T7 sequence (Q9Y6L6 1-691): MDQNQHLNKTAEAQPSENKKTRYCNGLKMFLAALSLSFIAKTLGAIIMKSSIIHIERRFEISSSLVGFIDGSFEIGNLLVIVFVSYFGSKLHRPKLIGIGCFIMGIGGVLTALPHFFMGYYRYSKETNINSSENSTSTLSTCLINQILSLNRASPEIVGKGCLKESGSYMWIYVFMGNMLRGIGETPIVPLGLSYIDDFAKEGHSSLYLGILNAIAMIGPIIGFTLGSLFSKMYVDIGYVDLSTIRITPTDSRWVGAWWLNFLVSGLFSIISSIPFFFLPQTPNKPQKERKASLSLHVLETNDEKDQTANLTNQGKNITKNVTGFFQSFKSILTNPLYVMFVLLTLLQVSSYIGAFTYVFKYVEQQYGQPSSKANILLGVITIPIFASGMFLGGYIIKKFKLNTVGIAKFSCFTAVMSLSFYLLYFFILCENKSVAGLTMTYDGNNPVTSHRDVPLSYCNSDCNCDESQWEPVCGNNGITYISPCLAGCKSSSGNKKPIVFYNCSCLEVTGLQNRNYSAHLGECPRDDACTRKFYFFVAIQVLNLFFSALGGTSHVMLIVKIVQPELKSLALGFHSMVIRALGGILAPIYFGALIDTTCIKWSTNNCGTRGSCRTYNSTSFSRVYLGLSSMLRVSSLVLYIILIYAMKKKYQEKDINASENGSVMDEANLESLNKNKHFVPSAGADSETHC
# Description: as §2, §3
# T1 sequence (P43220 24-463): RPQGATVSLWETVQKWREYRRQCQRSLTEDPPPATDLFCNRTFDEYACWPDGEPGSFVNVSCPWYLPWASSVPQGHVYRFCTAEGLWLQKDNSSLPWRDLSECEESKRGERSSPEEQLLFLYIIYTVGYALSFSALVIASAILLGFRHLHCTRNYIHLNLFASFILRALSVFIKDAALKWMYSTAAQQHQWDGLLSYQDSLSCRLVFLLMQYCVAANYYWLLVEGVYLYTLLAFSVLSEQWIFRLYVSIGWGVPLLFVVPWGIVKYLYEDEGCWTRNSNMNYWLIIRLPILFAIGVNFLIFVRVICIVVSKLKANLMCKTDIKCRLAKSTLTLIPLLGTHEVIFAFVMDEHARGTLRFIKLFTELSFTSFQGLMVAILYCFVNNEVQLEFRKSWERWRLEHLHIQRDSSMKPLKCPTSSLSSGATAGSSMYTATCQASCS
# T4 sequence (P08684 whole entry): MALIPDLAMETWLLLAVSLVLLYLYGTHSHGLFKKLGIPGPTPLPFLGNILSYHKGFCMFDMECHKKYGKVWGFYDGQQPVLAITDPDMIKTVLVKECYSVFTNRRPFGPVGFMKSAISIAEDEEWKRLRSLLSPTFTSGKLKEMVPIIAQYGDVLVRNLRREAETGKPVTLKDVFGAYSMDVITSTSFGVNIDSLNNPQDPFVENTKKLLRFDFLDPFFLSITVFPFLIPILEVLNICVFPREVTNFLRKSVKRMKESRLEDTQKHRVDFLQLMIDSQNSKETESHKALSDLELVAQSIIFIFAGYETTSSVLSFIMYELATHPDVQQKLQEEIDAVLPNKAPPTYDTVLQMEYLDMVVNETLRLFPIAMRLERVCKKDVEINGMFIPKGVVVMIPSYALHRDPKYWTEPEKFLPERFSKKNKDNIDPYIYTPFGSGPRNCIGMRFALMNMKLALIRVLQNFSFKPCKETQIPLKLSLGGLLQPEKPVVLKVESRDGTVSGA
# T3 sequence (P33261 whole entry): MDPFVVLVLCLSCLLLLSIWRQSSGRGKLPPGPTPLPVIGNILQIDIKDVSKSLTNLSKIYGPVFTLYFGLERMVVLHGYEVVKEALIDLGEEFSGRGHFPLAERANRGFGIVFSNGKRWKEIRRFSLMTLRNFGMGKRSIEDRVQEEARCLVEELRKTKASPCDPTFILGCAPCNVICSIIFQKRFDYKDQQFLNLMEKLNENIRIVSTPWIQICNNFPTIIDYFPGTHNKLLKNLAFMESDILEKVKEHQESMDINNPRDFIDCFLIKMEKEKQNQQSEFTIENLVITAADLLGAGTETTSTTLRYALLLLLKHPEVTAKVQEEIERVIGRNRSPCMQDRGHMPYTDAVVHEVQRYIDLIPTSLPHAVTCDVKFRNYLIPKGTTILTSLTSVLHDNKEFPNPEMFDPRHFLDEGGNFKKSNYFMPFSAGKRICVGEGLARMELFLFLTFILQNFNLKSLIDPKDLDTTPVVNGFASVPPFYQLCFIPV
# T2 sequence (P10635 whole entry): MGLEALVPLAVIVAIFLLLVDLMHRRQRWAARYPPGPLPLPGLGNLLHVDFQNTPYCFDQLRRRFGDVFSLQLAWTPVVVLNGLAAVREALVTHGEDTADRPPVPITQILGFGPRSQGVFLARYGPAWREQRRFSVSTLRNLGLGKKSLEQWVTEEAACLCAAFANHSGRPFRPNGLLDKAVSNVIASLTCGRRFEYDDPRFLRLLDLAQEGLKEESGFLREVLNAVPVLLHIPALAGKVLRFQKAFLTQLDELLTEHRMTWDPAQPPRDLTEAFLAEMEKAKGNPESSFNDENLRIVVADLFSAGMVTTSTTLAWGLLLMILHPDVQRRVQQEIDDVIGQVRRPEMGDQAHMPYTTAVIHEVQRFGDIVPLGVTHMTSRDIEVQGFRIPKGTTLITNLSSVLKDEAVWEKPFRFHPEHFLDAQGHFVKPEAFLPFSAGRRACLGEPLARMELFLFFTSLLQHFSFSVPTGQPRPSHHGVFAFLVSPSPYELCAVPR
# T6 sequence (P11712 whole entry): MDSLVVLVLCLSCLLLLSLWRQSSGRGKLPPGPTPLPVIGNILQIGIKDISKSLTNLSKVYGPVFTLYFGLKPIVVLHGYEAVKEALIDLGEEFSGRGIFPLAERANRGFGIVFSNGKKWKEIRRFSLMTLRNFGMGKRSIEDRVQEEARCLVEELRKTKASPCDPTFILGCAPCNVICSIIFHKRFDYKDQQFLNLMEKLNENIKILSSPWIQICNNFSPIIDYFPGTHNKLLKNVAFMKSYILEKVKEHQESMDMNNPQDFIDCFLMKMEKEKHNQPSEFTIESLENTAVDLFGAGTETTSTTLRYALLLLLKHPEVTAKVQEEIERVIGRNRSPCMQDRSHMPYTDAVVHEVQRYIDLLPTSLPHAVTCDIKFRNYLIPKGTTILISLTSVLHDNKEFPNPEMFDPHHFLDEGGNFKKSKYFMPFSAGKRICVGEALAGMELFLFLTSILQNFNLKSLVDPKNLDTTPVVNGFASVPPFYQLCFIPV
# Chain of OATP1B3 (Q9NPD5 whole entry, species assumed): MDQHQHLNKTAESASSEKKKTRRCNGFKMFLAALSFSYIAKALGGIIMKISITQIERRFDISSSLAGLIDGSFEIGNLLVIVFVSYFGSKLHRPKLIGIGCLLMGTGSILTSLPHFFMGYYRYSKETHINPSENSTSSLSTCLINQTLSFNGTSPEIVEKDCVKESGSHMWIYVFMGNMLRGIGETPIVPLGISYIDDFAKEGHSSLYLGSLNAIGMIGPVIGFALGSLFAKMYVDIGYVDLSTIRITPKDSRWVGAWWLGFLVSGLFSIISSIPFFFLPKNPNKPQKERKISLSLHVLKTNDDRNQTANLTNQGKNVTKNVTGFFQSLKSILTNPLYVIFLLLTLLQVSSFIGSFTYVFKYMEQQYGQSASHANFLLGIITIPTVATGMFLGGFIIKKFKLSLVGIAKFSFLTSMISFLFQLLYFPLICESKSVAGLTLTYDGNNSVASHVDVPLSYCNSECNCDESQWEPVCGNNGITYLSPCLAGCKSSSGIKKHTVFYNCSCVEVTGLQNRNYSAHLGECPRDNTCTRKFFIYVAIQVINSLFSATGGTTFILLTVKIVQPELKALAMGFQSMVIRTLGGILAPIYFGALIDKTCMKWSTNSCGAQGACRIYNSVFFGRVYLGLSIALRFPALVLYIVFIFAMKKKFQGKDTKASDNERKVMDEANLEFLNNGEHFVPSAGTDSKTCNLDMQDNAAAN
Compound,EC50 (GLP-1R [1]),"IC50 (CYP2D6; human, microsomes)","IC50 (CYP2C19; human, microsomes)","IC50 (CYP3A4; human, microsomes)","IC50 (CYP1A2; human, microsomes)","IC50 (CYP2C9; human, microsomes)",blood glucose inhibition rate (GLP-1R [2]),"bioavailability ([4]; mouse, po)","AUC(0-t) ([4]; mouse, po)",other results
"Cc1cc(-n2nc3c(c2-n2ccn(-c4ccc5c(c4)N(C)C(=O)C54CCOCC4)c2=O)[C@H](C)N(C(=O)c2cc4cc(C5CCOC(C)(C)C5)sc4n2C2(c4noc(=O)[nH]4)C[C@@H]2C)CC3)cc(C)c1F (single isomer, unassigned) [Compound 9]",< 1 nM,> 30 µM,> 30 µM,> 30 µM,> 30 µM,3.31 µM,–,–,–,–
Cc1cc(-n2nc3c(c2-n2ccn(-c4ccc5c(c4)N(C)C(=O)C54CCOCC4)c2=O)[C@H](C)N(C(=O)c2cc4cc([C@H]5CCOC(C)(C)C5)ccc4n2[C@@]2(c4noc(=O)[nH]4)C[C@@H]2C)CC3)cc(C)c1F [Compound 2],< 1 nM,–,–,–,–,–,-25.5%,70.3%,23200 ng·h/mL,"bioavailability ([3]; in vivo, po): 32.6%; AUC(0-t) ([3]; po, plasma): 11600 ng·h/mL"
[2H]C([2H])([2H])N1C(=O)C2(CCOCC2)c2ccc(-n3ccn(-c4c5c(nn4-c4cc(C)c(F)c(C)c4)CCN(C(=O)c4cc6cc([C@H]7CCOC(C)(C)C7)ccc6n4[C@@]4(c6noc(=O)[nH]6)C[C@@H]4C)[C@H]5C)c3=O)cc21 [Compound 3],< 1 nM,> 30 µM,> 30 µM,> 30 µM,> 30 µM,> 30 µM,-37.1%,–,–,–
C[C@H]1c2c(nn(-c3ccc(F)c(C4(F)CC4)c3)c2-n2ccn(-c3ccc4c(c3)N(C)C(=O)C43CCOCC3)c2=O)CCN1C(=O)c1cc2cc([C@H]3CCOC(C)(C)C3)ccc2n1[C@@]1(c2noc(=O)[nH]2)C[C@@H]1C [Compound 6],< 1 nM,> 30 µM,> 30 µM,> 30 µM,> 30 µM,> 30 µM,–,–,–,IC50 (OATP1B3): > 1000 nM; IC50 (OATP1B1): > 2000 nM
C=C(F)c1cc(-n2nc3c(c2-n2ccn(-c4ccc5c(c4F)N(C)C(=O)C54CCOCC4)c2=O)[C@H](C)N(C(=O)c2cc4cc([C@H]5CCOC(C)(C)C5)ccc4n2[C@@]2(c4noc(=O)[nH]4)C[C@@H]2C)CC3)ccc1F [Compound 54],< 1 nM,–,–,–,–,–,–,33.8%,12100 ng·h/mL,–
[2H]C([2H])([2H])N1C(=O)C2(CCOCC2)c2ccc(-n3ccn(-c4c5c(nn4-c4ccc(F)c(C(=C)F)c4)CCN(C(=O)c4cc6cc([C@H]7CCOC(C)(C)C7)ccc6n4[C@@]4(c6noc(=O)[nH]6)C[C@@H]4C)[C@H]5C)c3=O)c(F)c21 [Compound 55],< 1 nM,–,–,–,–,–,–,25.1%,8670 ng·h/mL,–
[2H]C([2H])([2H])N1C(=O)C2(CCOCC2)c2ccc(-n3ccn(-c4c5c(nn4-c4cc(C)c(F)c(C)c4)CCN(C(=O)c4cc6cc(C7CCOCC7)ccc6n4[C@@]4(c6noc(=O)[nH]6)C[C@@H]4C)[C@H]5C)c3=O)c(F)c21 [Compound 57],< 1 nM,–,–,–,–,–,–,–,–,–
[2H]C([2H])([2H])N1C(=O)C2(CCOCC2)c2ccc(-n3ccn(-c4c5c(nn4-c4cc(C)c(F)c(C)c4)CCN(C(=O)c4cc6cc(C7CCOCC7)ccc6n4[C@@]4(c6noc(=O)[nH]6)C[C@@H]4C)[C@H]5C)c3=O)cc21 [Compound 58],< 1 nM,–,–,–,–,–,–,–,–,–
"Cc1cc(-n2nc3c(c2-n2ccn(-c4ccc5c(cnn5C)c4F)c2=O)[C@H](C)N(C(=O)c2cc4cc([C@H]5CCOC(C)(C)C5)ccc4n2[C@@]2(c4noc(=O)[nH]4)C[C@@H]2C)CC3)cc(C)c1F [Orforglipron, reference compound]",–,–,–,–,–,–,-9.8%,–,–,"bioavailability ([3]; male, plasma, oral): 1.93%; AUC(0-t) ([3]; male, po, plasma): 584 ng·h/mL; bioavailability ([4]; male, C57, mouse, oral): 7.93%; AUC(0-t) ([4]; male, C57, mouse, po): 3260 ng·h/mL; IC50 (CYP2D6; human liver microsomes, NADPH, read-out: IC50 (µM) CYP2D6): > 30 µM; IC50 (CYP2C19; human liver microsomes, NADPH, read-out: IC50 (µM) CYP2C19): > 30 µM; IC50 (CYP3A4; human liver microsomes, NADPH, read-out: IC50 (µM) CYP3A4): > 30 µM; IC50 (CYP1A2; human liver microsomes, NADPH, read-out: IC50 (µM) CYP1A2): > 30 µM; IC50 (CYP2C9; human liver microsomes, NADPH, read-out: IC50 (µM) CYP2C9): 0.905 µM"
